According to the supplement of paper PMC11451515:

Columns and labels:
Settings in all cases: 48 h
SEM cells [1] = experiment: cell viability relative to DMSO control; higher = less cytotoxic
In short: (§1)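 NOMO1 or SEM cells were plated at 500 cells/well and P12-Ichikawa cells at 1000 cells/well in 1536-well plates (5 μl), after each leukemia line had been adapted for at least four passages in each medium. Pin dosing delivered library compounds in DMSO at 11 threefold concentrations, 47 μM to 0.79 nM. CellTiter-Glo One luminescence was read after 48 h at 37°C. Viability is reported as a per-plate percentage of DMSO wells, with cell-free wells as background.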

NOMO1 [2] = experiment: as above
In short: as §1

P12-Ichikawa [3] = experiment: as above
In short: as §1

SEM cells [4] = experiment: AUC of viability dose-response curve (% viability x log10 dose units); higher = less sensitive
In short: (§2)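 Leukemia cells adapted to each medium (500 or 1000 cells/well, 1536-well plates) were exposed to library compounds in DMSO for 48 h at 37°C at 11 threefold doses, 47 μM to 0.79 nM. Luminescence by CellTiter-Glo One was normalised per plate to DMSO and cell-free wells, then fitted with a four-parameter log-logistic curve on log10 dose. Curves above full viability were scaled and quality-control failures removed before area under the curve was integrated by trapezoidal rule.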

NOMO1 [5] = experiment: as above
In short: as §2

P12-Ichikawa [6] = experiment: as above
In short: as §2

COc1ccc(-n2c(C)c([N+](=O)[O-])c3ccc(O)cc32)cc1
cell viability [%]
Settings	NOMO1 [2]	P12-Ichikawa [3]	SEM cells [1]
RPMI 5 mM glucose + 10% FBS, 0.000781 µM	111	127	102
RPMI 5 mM glucose + 10% FBS, 0.00234 µM	104	118	103
RPMI 5 mM glucose + 10% FBS, 0.00702 µM	113	118	111
RPMI 5 mM glucose + 10% FBS, 0.0211 µM	114	126	107
RPMI 5 mM glucose + 10% FBS, 0.0632 µM	118	118	120
RPMI 5 mM glucose + 10% FBS, 0.19 µM	126	123	109
RPMI 5 mM glucose + 10% FBS, 0.569 µM	107	122	108
RPMI 5 mM glucose + 10% FBS, 1.71 µM	121	121	122
RPMI 5 mM glucose + 10% FBS, 5.12 µM	98.3	115	127
RPMI 5 mM glucose + 10% FBS, 15.4 µM	119	111	121
RPMI 5 mM glucose + 10% FBS, 46.1 µM	106	105	98.5
RPMI 5 mM glucose + 10% dialyzed FBS, 0.000781 µM	114	119	–
RPMI 5 mM glucose + 10% dialyzed FBS, 0.00234 µM	120	121	–
RPMI 5 mM glucose + 10% dialyzed FBS, 0.00702 µM	126	120	–
RPMI 5 mM glucose + 10% dialyzed FBS, 0.0211 µM	124	122	–
RPMI 5 mM glucose + 10% dialyzed FBS, 0.0632 µM	123	114	–
RPMI 5 mM glucose + 10% dialyzed FBS, 0.19 µM	115	118	–
RPMI 5 mM glucose + 10% dialyzed FBS, 0.569 µM	114	121	–
RPMI 5 mM glucose + 10% dialyzed FBS, 1.71 µM	102	122	–
RPMI 5 mM glucose + 10% dialyzed FBS, 5.12 µM	97.5	106	–
RPMI 5 mM glucose + 10% dialyzed FBS, 15.4 µM	105	112	–
RPMI 5 mM glucose + 10% dialyzed FBS, 46.1 µM	101	102	–

AUC of viability dose-response curve
Settings	NOMO1 [5]	P12-Ichikawa [6]	SEM cells [4]
HPLM + 10% dialyzed FBS	452	446	469
RPMI 5 mM glucose + 10% FBS	476	465	453
RPMI 5 mM glucose + 10% dialyzed FBS	446	464	468

Cc1nc(-c2ccc(-c3ccc(C(=O)N4CCc5cc6c(cc54)C4(CCN(C)CC4)CO6)cc3)c(C)c2)no1
cell viability [%]
Settings	NOMO1 [2]	P12-Ichikawa [3]	SEM cells [1]
HPLM + 10% dialyzed FBS, 0.000781 µM	92.2	106	88.4
HPLM + 10% dialyzed FBS, 0.00234 µM	119	114	104
HPLM + 10% dialyzed FBS, 0.00702 µM	105	111	108
HPLM + 10% dialyzed FBS, 0.0211 µM	124	116	106
HPLM + 10% dialyzed FBS, 0.0632 µM	136	122	119
HPLM + 10% dialyzed FBS, 0.19 µM	131	111	97.4
HPLM + 10% dialyzed FBS, 0.569 µM	128	121	114
HPLM + 10% dialyzed FBS, 1.71 µM	129	123	108
HPLM + 10% dialyzed FBS, 5.12 µM	127	119	117
HPLM + 10% dialyzed FBS, 15.4 µM	127	119	136
HPLM + 10% dialyzed FBS, 46.1 µM	135	120	123
RPMI 5 mM glucose + 10% FBS, 0.000781 µM	107	107	114
RPMI 5 mM glucose + 10% FBS, 0.00234 µM	120	112	102
RPMI 5 mM glucose + 10% FBS, 0.00702 µM	111	106	107
RPMI 5 mM glucose + 10% FBS, 0.0211 µM	104	116	105
RPMI 5 mM glucose + 10% FBS, 0.0632 µM	116	117	99.3
RPMI 5 mM glucose + 10% FBS, 0.19 µM	115	114	112
RPMI 5 mM glucose + 10% FBS, 0.569 µM	128	123	114
RPMI 5 mM glucose + 10% FBS, 1.71 µM	104	115	101
RPMI 5 mM glucose + 10% FBS, 5.12 µM	110	121	117
RPMI 5 mM glucose + 10% FBS, 15.4 µM	111	124	107
RPMI 5 mM glucose + 10% FBS, 46.1 µM	112	118	113
RPMI 5 mM glucose + 10% dialyzed FBS, 0.000781 µM	104	107	108
RPMI 5 mM glucose + 10% dialyzed FBS, 0.00234 µM	111	107	99.7
RPMI 5 mM glucose + 10% dialyzed FBS, 0.00702 µM	116	113	103
RPMI 5 mM glucose + 10% dialyzed FBS, 0.0211 µM	104	116	95.4
RPMI 5 mM glucose + 10% dialyzed FBS, 0.0632 µM	101	110	92.5
RPMI 5 mM glucose + 10% dialyzed FBS, 0.19 µM	131	121	96
RPMI 5 mM glucose + 10% dialyzed FBS, 0.569 µM	135	120	104
RPMI 5 mM glucose + 10% dialyzed FBS, 1.71 µM	118	116	96.5
RPMI 5 mM glucose + 10% dialyzed FBS, 5.12 µM	122	115	92.8
RPMI 5 mM glucose + 10% dialyzed FBS, 15.4 µM	117	121	100
RPMI 5 mM glucose + 10% dialyzed FBS, 46.1 µM	118	126	103

AUC of viability dose-response curve
Settings	NOMO1 [5]	P12-Ichikawa [6]	SEM cells [4]
HPLM + 10% dialyzed FBS	454	464	420
RPMI 5 mM glucose + 10% FBS	477	460	467
RPMI 5 mM glucose + 10% dialyzed FBS	449	447	439

N#Cc1cc(NC(=O)Nc2nnc(-c3ccncc3)s2)ccc1-c1cn[nH]c1
cell viability [%]
Settings	NOMO1 [2]	P12-Ichikawa [3]	SEM cells [1]
HPLM + 10% dialyzed FBS, 0.000781 µM	117	117	–
HPLM + 10% dialyzed FBS, 0.00234 µM	118	125	–
HPLM + 10% dialyzed FBS, 0.00702 µM	115	122	–
HPLM + 10% dialyzed FBS, 0.0211 µM	110	125	–
HPLM + 10% dialyzed FBS, 0.0632 µM	116	120	–
HPLM + 10% dialyzed FBS, 0.19 µM	114	116	–
HPLM + 10% dialyzed FBS, 0.569 µM	113	122	–
HPLM + 10% dialyzed FBS, 1.71 µM	130	115	–
HPLM + 10% dialyzed FBS, 5.12 µM	121	113	–
HPLM + 10% dialyzed FBS, 15.4 µM	123	106	–
HPLM + 10% dialyzed FBS, 46.1 µM	106	110	–
RPMI 5 mM glucose + 10% FBS, 0.000781 µM	108	120	96
RPMI 5 mM glucose + 10% FBS, 0.00234 µM	100	127	111
RPMI 5 mM glucose + 10% FBS, 0.00702 µM	114	125	93
RPMI 5 mM glucose + 10% FBS, 0.0211 µM	124	126	85.1
RPMI 5 mM glucose + 10% FBS, 0.0632 µM	114	110	96.4
RPMI 5 mM glucose + 10% FBS, 0.19 µM	115	116	106
RPMI 5 mM glucose + 10% FBS, 0.569 µM	99.6	119	107
RPMI 5 mM glucose + 10% FBS, 1.71 µM	114	113	105
RPMI 5 mM glucose + 10% FBS, 5.12 µM	105	119	87.9
RPMI 5 mM glucose + 10% FBS, 15.4 µM	127	112	93.1
RPMI 5 mM glucose + 10% FBS, 46.1 µM	101	109	89.2
RPMI 5 mM glucose + 10% dialyzed FBS, 0.000781 µM	–	121	107
RPMI 5 mM glucose + 10% dialyzed FBS, 0.00234 µM	–	126	120
RPMI 5 mM glucose + 10% dialyzed FBS, 0.00702 µM	–	117	128
RPMI 5 mM glucose + 10% dialyzed FBS, 0.0211 µM	–	124	107
RPMI 5 mM glucose + 10% dialyzed FBS, 0.0632 µM	–	126	98.6
RPMI 5 mM glucose + 10% dialyzed FBS, 0.19 µM	–	126	129
RPMI 5 mM glucose + 10% dialyzed FBS, 0.569 µM	–	128	113
RPMI 5 mM glucose + 10% dialyzed FBS, 1.71 µM	–	124	122
RPMI 5 mM glucose + 10% dialyzed FBS, 5.12 µM	–	115	127
RPMI 5 mM glucose + 10% dialyzed FBS, 15.4 µM	–	112	93
RPMI 5 mM glucose + 10% dialyzed FBS, 46.1 µM	–	105	108

AUC of viability dose-response curve
Settings	NOMO1 [5]	P12-Ichikawa [6]	SEM cells [4]
HPLM + 10% dialyzed FBS	473	463	451
RPMI 5 mM glucose + 10% FBS	476	452	462
RPMI 5 mM glucose + 10% dialyzed FBS	461	465	467
